Legend:
[1] = target: T1, FLT3 kinase (Homo sapiens, UniProt P36888); experiment: Competition binding assay, FLT3 Kd
T1 construct: made in house; host or cells: T7 phage display or HEK-293 cells
T1 sequence (P36888 27-993): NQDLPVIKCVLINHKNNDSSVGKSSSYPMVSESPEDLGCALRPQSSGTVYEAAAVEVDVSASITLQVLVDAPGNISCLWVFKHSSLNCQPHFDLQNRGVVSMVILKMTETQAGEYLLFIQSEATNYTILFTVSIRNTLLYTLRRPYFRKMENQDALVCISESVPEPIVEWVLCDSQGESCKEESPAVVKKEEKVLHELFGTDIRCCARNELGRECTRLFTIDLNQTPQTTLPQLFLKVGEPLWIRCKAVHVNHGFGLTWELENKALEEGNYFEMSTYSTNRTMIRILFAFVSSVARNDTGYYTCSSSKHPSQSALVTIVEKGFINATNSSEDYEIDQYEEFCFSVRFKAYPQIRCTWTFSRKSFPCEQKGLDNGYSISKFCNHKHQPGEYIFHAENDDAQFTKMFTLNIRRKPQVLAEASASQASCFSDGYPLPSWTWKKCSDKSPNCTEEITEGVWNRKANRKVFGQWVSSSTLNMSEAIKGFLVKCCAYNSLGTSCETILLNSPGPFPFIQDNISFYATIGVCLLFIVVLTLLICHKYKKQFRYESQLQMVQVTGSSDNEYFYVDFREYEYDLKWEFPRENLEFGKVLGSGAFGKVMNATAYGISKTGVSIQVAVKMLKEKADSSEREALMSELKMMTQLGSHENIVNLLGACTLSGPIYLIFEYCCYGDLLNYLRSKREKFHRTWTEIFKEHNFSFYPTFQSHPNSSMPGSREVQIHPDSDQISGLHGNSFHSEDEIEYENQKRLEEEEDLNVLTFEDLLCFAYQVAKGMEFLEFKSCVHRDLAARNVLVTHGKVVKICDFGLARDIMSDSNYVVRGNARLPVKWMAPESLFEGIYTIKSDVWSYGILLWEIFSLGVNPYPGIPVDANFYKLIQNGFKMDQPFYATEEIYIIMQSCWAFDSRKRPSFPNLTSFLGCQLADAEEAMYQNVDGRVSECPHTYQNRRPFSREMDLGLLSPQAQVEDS
Procedure, shortened: (§1)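 Kinases, either T7 phage fusions or HEK-293-expressed and DNA-tagged, competed for immobilised biotinylated affinity ligand against test compound, 1 h at RT in binding buffer with 6 mM DTT. Bound kinase eluted with 0.5 μM free ligand and quantified by qPCR; Kd from 11-point threefold dilutions.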

[2] = target: T2, KIT kinase (Homo sapiens, UniProt P10721); experiment: Competition binding assay, KIT Kd
T2 construct: made in house; host or cells: T7 phage display or HEK-293 cells
T2 sequence (P10721 26-976): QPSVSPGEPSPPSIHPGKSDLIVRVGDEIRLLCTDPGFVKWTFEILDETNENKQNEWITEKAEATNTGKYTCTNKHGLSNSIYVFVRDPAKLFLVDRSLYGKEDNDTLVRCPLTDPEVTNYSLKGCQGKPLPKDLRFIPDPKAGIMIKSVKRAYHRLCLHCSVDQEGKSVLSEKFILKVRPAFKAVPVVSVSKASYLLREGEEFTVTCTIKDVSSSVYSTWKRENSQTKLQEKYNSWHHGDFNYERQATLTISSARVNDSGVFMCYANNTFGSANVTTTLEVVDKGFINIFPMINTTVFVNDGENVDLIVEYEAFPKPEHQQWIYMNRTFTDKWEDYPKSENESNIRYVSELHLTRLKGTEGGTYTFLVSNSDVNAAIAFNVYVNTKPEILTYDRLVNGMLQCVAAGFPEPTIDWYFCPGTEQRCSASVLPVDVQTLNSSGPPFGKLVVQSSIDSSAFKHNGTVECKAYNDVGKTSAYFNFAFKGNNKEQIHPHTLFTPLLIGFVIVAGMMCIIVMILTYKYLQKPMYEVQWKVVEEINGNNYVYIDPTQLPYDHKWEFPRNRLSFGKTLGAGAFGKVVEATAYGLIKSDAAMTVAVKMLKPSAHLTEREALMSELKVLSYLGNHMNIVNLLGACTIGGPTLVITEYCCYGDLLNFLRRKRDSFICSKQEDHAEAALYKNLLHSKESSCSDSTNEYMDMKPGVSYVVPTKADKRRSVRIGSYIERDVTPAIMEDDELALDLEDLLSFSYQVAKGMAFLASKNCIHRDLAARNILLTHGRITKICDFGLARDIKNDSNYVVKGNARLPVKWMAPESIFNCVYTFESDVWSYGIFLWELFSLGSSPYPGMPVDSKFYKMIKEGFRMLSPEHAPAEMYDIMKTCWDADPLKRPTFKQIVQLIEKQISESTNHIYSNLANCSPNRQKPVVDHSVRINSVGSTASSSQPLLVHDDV
Procedure, shortened: as §1

[3] = target: T3, CSF-1R kinase (Homo sapiens, UniProt P07333); experiment: Competition binding assay, CSF-1R Kd
T3 construct: made in house; host or cells: T7 phage display or HEK-293 cells
T3 sequence (P07333 20-972): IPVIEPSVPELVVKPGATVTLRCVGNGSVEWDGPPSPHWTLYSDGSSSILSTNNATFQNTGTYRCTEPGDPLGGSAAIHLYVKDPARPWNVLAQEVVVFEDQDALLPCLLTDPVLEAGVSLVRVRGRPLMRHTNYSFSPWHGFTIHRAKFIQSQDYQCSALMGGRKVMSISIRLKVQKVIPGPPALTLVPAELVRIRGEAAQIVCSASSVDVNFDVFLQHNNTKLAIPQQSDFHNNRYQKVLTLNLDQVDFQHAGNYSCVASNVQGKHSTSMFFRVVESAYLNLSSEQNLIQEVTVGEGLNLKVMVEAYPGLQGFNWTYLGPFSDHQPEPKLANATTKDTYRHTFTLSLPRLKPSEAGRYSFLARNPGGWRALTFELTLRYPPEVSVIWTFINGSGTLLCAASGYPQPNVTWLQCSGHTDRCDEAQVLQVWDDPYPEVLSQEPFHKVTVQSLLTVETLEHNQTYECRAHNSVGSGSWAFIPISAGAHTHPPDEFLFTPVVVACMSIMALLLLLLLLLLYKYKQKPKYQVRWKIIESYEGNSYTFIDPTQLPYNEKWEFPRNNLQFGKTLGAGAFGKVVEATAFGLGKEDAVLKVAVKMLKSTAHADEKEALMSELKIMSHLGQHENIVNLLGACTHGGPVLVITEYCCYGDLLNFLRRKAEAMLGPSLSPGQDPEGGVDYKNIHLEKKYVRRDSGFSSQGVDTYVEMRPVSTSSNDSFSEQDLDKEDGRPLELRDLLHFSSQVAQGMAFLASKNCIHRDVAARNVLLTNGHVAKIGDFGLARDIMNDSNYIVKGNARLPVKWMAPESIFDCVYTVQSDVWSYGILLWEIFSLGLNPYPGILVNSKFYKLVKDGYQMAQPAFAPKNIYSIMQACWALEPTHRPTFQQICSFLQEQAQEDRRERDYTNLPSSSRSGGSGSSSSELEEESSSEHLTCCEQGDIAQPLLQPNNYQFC
Procedure, shortened: as §1

[4] = test system: MV4-11 cells; experiment: MV4-11 cell proliferation assay (Alamar Blue); format: cell-based; settings: 3 days incubation
Procedure, shortened: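 Flt3-ITD MV4-11 cells were serum-starved overnight in Iscove's with 0.5% FBS, then given compound at 9 half-log concentrations (0.5% DMSO) for 3 days at 37° C. Alamar Blue reduction was read after 3 h by fluorescence (560/590 nm). IC50 is the mean of duplicates versus negative control.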

[5] = target: kinase panel containing either 359 or 386 distinct kinases; experiment: Selectivity score S10 from competition binding against a panel of kinases; settings: compounds at 10 μM; for Kinase specificty: S(10)-386 panel: panel of 386 distinct kinases; for Kinase specificty: S(10)-359 panel: panel of 359 distinct kinases
Experimental: Competition binding assays used herein were developed, validated and performed as described in Fabian et al., Nature Biotechnology 2005, 23,329-336. Kinases were produced as fusions to T7 phage (See, Fabian et al. or WO04/015142) or alternatively, the kinases were expressed in HEK-293 cells and subsequently tagged with DNA for PCR detection (See, WO08/005,310). For the binding assays, streptavidin-coated magnetic beads were treated with biotinylated affinity ligands for 30 min at room temperature to generate affinity resins. The liganded beads were blocked with excess biotin and washed with blocking buffer (SeaBlock (Pierce), 1% BSA, 0.05% Tween 20, 1 mM DTT) to remove unbound ligand and to reduce non-specific binding. Binding reactions were assembled by combining kinase, liganded affinity beads, and test compounds in 1× binding buffer (20% SeaBlock, 0.17×PBS, 0.05% Tween 20, 6 mM DTT). Test compounds were prepared as 100× stocks in DMSO and diluted into the aqueous environment. Kds were determined using an eleven point threefold serial dilutions. DMSO or control compounds were was added to control assays lacking a test compound. Primary screen assays were performed in polypropylene 384-well plates in a final volume of 20-40 μL, while Kd determinations were performed in polystyrene 96-well plates in a final volume of 135 μL. The assay plates were incubated at room temperature with shaking for 1 hour to allow the binding reactions to reach equilibrium, and the affinity beads were washed extensively with wash buffer (1×PBS, 0.05% Tween 20) to remove unbound protein. The beads were then resuspended in elution buffer (1×PBS, 0.05% Tween 20, 0.5 μM non-biotinylated affinity ligand) and incubated at room temperature with shaking for 30 min. The kinase concentration in the eluates was measured by quantitative PCR.
A selectivity score (S10) is a quantitative measure of selectivity of a compound against a panel of kinases. An S10 was calculated for a compound by dividing the number of kinases found to have a percent of control (DMSO) less than 10 by the total number of distinct kinases tested (excluding mutant variants). Percent of control (POC) is calculated by subtracting the signal of the control compound (POC=0) from the signal of the test compound and dividing the outcome by the signal of DMSO (POC=100) minus the signal of the control compound. For the compounds disclosed herein, S10 scores were obtained by testing the compounds at 10 μM concentration in a kinase panel containing either 359 or 386 distinct kinases.

Kd [1] [nM]	Kd [2] [nM]	Kd [3] [nM]	Kinase specificty: S(10)-386 panel [5]	IC50 ([4]; Homo sapiens, MV4-11, 72 h) [nM]	Kinase specificty: S(10)-359 panel [5]	Compound	IC50 [4] [nM]
≤ 1	≤ 1	≤ 10	A (A≦0.1)	≤ 1	A (A≦0.1)	CC(C)(C)c1cc(NC(=O)Nc2ccc(-c3ccc(N)nc3)cc2)no1 [Example 1, 1-(4-(6-aminopyridin-3-yl)phenyl)-3-(5-tert-butylisoxazol-3-yl)urea]	–
≤ 1	1 to 10	≤ 10	–	≤ 1	B (0.1<B≦0.2 nM)	CC(C)(C)c1cc(NC(=O)Nc2ccc(-c3cnc(N)c(C#N)c3)cc2)no1 [Example 2, 1-[4-(6-amino-5-cyanopyridin-3-yl)-phenyl]-3-(5-tert-butylisoxazol-3-yl)urea]	–
≤ 1	≤ 1	≤ 10	–	≤ 1	A (A≦0.1)	CC(C)(C)c1cc(NC(=O)Nc2ccc(-c3cnc4c(c3)OCC(=O)N4)cc2)no1 [Example 3, 1-(5-tert-butylisoxazol-3-yl)-3-(4-(3-oxo-3,4-dihydro-2H-pyrido[3,2-b][1,4]oxazin-7-yl)phenyl)urea]	–
1 to 10	1 to 10	≤ 10	–	1 to 10	B (0.1<B≦0.2 nM)	CC(C)(C)c1cc(NC(=O)Nc2ccc(-c3cnc4c(c3)OCCN4)cc2)no1 [Example 4, 1-(5-tert-butylisoxazol-3-yl)-3-(4-(3,4-dihydro-2H-pyrido[3,2-b][1,4]oxazin-7-yl)phenyl)urea]	–
≤ 1	1 to 10	≤ 10	–	≤ 1	B (0.1<B≦0.2 nM)	CC(C)(C)c1cc(NC(=O)Nc2ccc(-c3cnc4c(c3)OCC(CCO)N4)cc2)no1 (stereo not shown) [Example 5, 1-(5-tert-butylisoxazol-3-yl)-3-(4-(3-(2-hydroxyethyl)-3,4-dihydro-2H-pyrido[3,2-b][1,4]oxazin-7-yl)phenyl)urea]	–
1 to 10	1 to 10	10 to 100	–	1 to 10	A (A≦0.1)	CC(C)(C)c1cc(NC(=O)Nc2ccc(-c3cnc(NCCN4CCOCC4)c(C#N)c3)cc2)no1 [Example 6, 1-(5-tert-butylisoxazol-3-yl)-3-(4-(5-cyano-6-(2-morpholinoethylamino)pyridin-3-yl)phenyl)urea]	–
≤ 1	≤ 1	≤ 10	–	1 to 10	A (A≦0.1)	CC(C)(C)c1cc(NC(=O)Nc2ccc(-c3ccc(NCCN4CCOCC4)nc3)cc2)no1 [Example 7, 1-(5-tert-butyl-isoxazol-3-yl)-3-{4-[6-(2-morpholin-4-yl-ethylamino)-pyridin-3-yl]-phenyl}urea]	–
≤ 1	≤ 1	≤ 10	–	–	B (0.1<B≦0.2 nM)	CC(C)(C)c1cc(NC(=O)Nc2ccc(-c3cnc(NCCN4CCOCC4)nc3)cc2)no1 [Example 45, 1-(5-tert-butylisoxazol-3-yl)-3-{4-[2-(2-morpholin-4-yl-ethylamino)-pyrimidin-5-yl]phenyl}urea]	–
1 to 10	1 to 10	≤ 10	–	–	A (A≦0.1)	COc1cc(-c2cnc(N)nc2)ccc1NC(=O)Nc1cc(C(C)(C)C)on1 [Example 48, 1-[4-(2-aminopyrimidin-5-yl)-2-methoxy-phenyl]-3-(5-tert-butylisoxazol-3-yl)-urea]	–
10 to 100	1 to 10	100 to 500	–	–	A (A≦0.1)	CC(C)(C)c1cc(NC(=O)Nc2ccc(-c3cnc(CN4CCOCC4)nc3)cc2)no1 [Example 51, 1-(5-tert-butylisoxazol-3-yl)-3-(4-(2-(morpholinomethyl)pyrimidin-5-yl)phenyl)urea]	–
–	–	–	B (0.1<B≦0.2 nM)	–	–	CS(=O)(=O)O.Nc1ncc(-c2ccc(CC(=O)Nc3cc(C4(C(F)(F)F)CC4)on3)cc2)cc1F [Example 127]	–
–	–	–	A (A≦0.1)	–	–	CC(C)(C)c1cc(NC(=O)Cc2ccc(-c3ccc(N)nc3C(F)(F)F)cc2)no1.CS(=O)(=O)O [Example 129]	–
–	–	–	A (A≦0.1)	–	–	CS(=O)(=O)O.Cc1cc(-c2ccc(CC(=O)Nc3cc(C4(C(F)(F)F)CC4)on3)cc2)cnc1N [Example 130]	–
10 to 100	> 100	> 100	–	> 100	–	CC(C)(C)c1cc(NC(=O)Cc2ccc(-c3ccc(N)nc3)c(C(F)(F)F)c2)no1 [Example 180]	–
1 to 10	10 to 100	10 to 100	–	1 to 10	–	Cn1[nH]c2ncc(-c3ccc(CC(=O)Nc4cc(C(C)(C)C)on4)cc3)cc2c1=O [Example 181]	–
1 to 10	1 to 10	10 to 100	–	1 to 10	–	CC(C)(C)c1cc(NC(=O)C(O)c2ccc(-c3ccc(N)nc3)cc2)no1 (stereo not shown) [Example 182]	–
≤ 1	1 to 10	≤ 10	–	≤ 1	–	CC(C)(C)c1cc(NC(=O)Cc2ccc(-c3cnc(N)cc3F)cc2)on1 [Example 183]	–
≤ 1	1 to 10	≤ 10	–	≤ 1	–	CC(F)(F)C1(c2cc(NC(=O)Cc3ccc(-c4cnc(N)cc4F)cc3)no2)CC1 [Example 184]	–
≤ 1	≤ 1	≤ 10	–	1 to 10	–	CC1(c2cc(NC(=O)Cc3ccc(-c4ccc(NCCS(C)(=O)=O)nc4)cc3)no2)CC1 [Example 185]	–
≤ 1	≤ 1	≤ 10	–	≤ 1	–	CC(C)c1cc(NC(=O)Cc2ccc(-c3ccc(N)nc3)cc2)no1 [Example 186]	–
1 to 10	1 to 10	100 to 500	–	10 to 100	–	CN1CC(=O)Nc2ncc(-c3ccc(CC(=O)Nc4cc(C(C)(C)C)on4)cc3)cc2C1 [Example 190]	–

Compound	Kd [1] [nM]	Kd [2] [nM]	Kd [3] [nM]	Kinase specificty: S(10)-386 panel [5]	IC50 ([4]; Homo sapiens, MV4-11, 72 h) [nM]	Kinase specificty: S(10)-359 panel [5]	IC50 [4] [nM]
2-(4-(6-aminopyridin-3-yl)phenyl)-N-(3-tert-butyl-1H-pyrazol-1-yl)acetamide and 2-(4-(6-aminopyridin-3-yl)phenyl)-N-(5-tert-butyl-1H-pyrazol-1-yl)acetamide [Example 91]	≤ 1	1 to 10	10 to 100	A (A≦0.1)	–	–	1 to 10

— US20130035326A1 (AMBIT BIOSCIENCES CORPORATION, priority 2009, published 2013)
